According to ChEMBL document CHEMBL1156709, “Evaluation of ursolic acid isolated from Ilex paraguariensis and derivatives on aromatase inhibition” (Eur J Med Chem, 2008):

Each compound was assayed against T1, Aromatase (Homo sapiens, UniProt P11511) (assay: Inhibition of aromatase).
T1 sequence (P11511 whole entry): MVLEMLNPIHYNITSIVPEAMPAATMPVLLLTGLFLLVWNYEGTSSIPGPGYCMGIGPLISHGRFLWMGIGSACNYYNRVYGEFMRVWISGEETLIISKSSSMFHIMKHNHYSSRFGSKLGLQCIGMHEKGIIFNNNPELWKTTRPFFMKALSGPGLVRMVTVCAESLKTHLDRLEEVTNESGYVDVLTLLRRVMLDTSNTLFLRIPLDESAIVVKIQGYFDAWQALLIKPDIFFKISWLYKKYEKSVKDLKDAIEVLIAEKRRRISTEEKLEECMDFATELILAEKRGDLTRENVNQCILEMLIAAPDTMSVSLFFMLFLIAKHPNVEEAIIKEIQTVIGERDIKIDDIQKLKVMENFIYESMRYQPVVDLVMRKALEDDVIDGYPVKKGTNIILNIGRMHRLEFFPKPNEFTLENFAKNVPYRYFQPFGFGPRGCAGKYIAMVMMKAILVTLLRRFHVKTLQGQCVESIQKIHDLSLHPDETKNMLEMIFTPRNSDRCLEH

Point of comparison: `C[C@H]1[C@H](C)CC[C@]2(C(=O)O)CC[C@]3(C)C(=CC[C@@H]4[C@@]5(C)CC[C@H](O)C(C)(C)[C@@H]5CC[C@]43C)[C@H]12` [URSOLIC ACID], IC50 30.7 µM. Against it:
- CC(=O)O[C@H]1CC[C@]2(C)[C@H]3CC=C4[C@@H]5[C@@H](C)[C@H](C)CC[C@]5(C(=O)O)CC[C@@]4(C)[C@]3(C)CC[C@H]2C1(C)C [O-ACETYLURSOLIC ACID] — 2.8-fold higher, 85.6 µM

The compounds below were run against T1, Aromatase (assay: Inhibition of aromatase in human placental microsomes assessed as tritiated water release after 15 mins using [1-beta, 3H]androstenedione as substrate by scintillation counting).
Design: species or system Placenta

Point of comparison: `C[C@H]1[C@H](C)CC[C@]2(C(=O)O)CC[C@]3(C)C(=CC[C@@H]4[C@@]5(C)CC[C@H](O)C(C)(C)[C@@H]5CC[C@]43C)[C@H]12` [URSOLIC ACID], IC50 32 µM. Against it:
- C[C@H]1[C@H](C)CC[C@]2(C(=O)O)CC[C@]3(C)C(=CC[C@@H]4[C@@]5(C)CCC(=O)NC(C)(C)[C@@H]5CC[C@]43C)[C@H]12 — higher, > 500 µM
- C=C(C)[C@@H]1CC[C@]2(C)[C@H](CC=C3[C@@H]4[C@@H](C)[C@H](C)CC[C@]4(C(=O)O)CC[C@]32C)[C@@]1(C)CCC#N — higher, > 500 µM
- C[C@H]1[C@H](C)CC[C@]2(C(=O)O)CC[C@]3(C)C(=CC[C@@H]4[C@@]5(C)CCC(=O)C(C)(C)[C@@H]5CC[C@]43C)[C@H]12 [URSONIC ACID] — higher, > 500 µM
- C[C@H]1[C@H](C)CC[C@]2(C(=O)O)CC[C@]3(C)C(=CC[C@@H]4[C@@]5(C)CC/C(=N\O)C(C)(C)[C@@H]5CC[C@]43C)[C@H]12 — higher, > 500 µM
- C[C@H]1[C@H](C)CC[C@]2(C(=O)NCCCN3CCN(CCCN)CC3)CC[C@]3(C)C(=CC[C@@H]4[C@@]5(C)CC[C@H](O)C(C)(C)[C@@H]5CC[C@]43C)[C@H]12 — not separable, < 500 µM
- C[C@]12CCC(=O)C(O)=C1CC[C@@H]1[C@@H]2CC[C@]2(C)C(=O)CC[C@@H]12 [FORMESTANE] — 40-fold lower, 0.8 µM
- CC(=O)O[C@H]1CC[C@]2(C)[C@H]3CC=C4[C@@H]5[C@@H](C)[C@H](C)CC[C@]5(C(=O)NCCCN5CCN(CCCN)CC5)CC[C@@]4(C)[C@]3(C)CC[C@H]2C1(C)C — not separable, < 500 µM

The compounds below were run against T1, Aromatase (assay: Inhibition of aromatase at 40.7 uM).

Point of comparison: `CC1(C)CC[C@]2(C(=O)O)CC[C@]3(C)C(=CC[C@@H]4[C@@]5(C)CC[C@H](O)C(C)(C)[C@@H]5CC[C@]43C)[C@@H]2C1` [OLEANOLIC_ACID], inhibition at 40.7 µM 12%. Against it:
- C[C@H]1[C@H](C)CC[C@]2(C(=O)O)CC[C@]3(C)C(=CC[C@@H]4[C@@]5(C)CC[C@H](O)C(C)(C)[C@@H]5CC[C@]43C)[C@H]12 [URSOLIC ACID] — the same, 12%
